In patent US9776963B2, “Small molecule CD4 mimetics and uses thereof” (priority 2008, dated 2017):
Where “and” joins values, the source holds several entries; their conditions need not be identical. Identical values can stand only once. Like-named read-outs stand apart in the source and are kept apart here.

Experiments:
[1] = biological target: T1, HIV-1 YU2 gp120 glycoprotein V430A (Human immunodeficiency virus type 1 group M subtype B, UniProt P35961, V417A); experiment: biochemical; assay type: binding
T1 construct: (His)6 (C); made in house; host or cells: 293F cells

[2] = biological target: T2, HIV-1 YU2 gp120 glycoprotein D368A/S375A (Human immunodeficiency virus type 1 group M subtype B, UniProt P35961, D363A/S370A); experiment: biochemical; assay type: binding
T2 construct: (His)6 (C); made in house; host or cells: 293F cells

[3] = tested on: viruses with gp120 Glu 429 replaced with alanine; assay type: cell-based
D368A mutant viruses = assay type: cell-based; conditions: D368A envelope, CD4-CCR5+ target cells
[4] = biological target: T3, HIV-1 YU2 gp120 glycoprotein S375A (Human immunodeficiency virus type 1 group M subtype B, UniProt P35961, S370A); experiment: biochemical; assay type: binding
T3 construct: (His)6 (C); made in house; host or cells: 293F cells

[5] = tested on: recombinant HIV with the wild-type HIVYU2 envelope glycoproteins; assay type: cell-based; conditions: w.t. YU2 envelope
[6] = tested on: recombinant HIV with the w.t. HIVYU2 envelope glycoproteins; experiment: microbe, parasite or virus in culture; assay type: cell-based; conditions: for IC50: w.t. YU2 envelope glycoproteins; for inhibition of HIV infection of cells expressing CD4 and CCR5 (in words): specificity versus A-MLV control
[7] = biological target: T4, HIV-1 YU2 gp120 glycoprotein D368A (Human immunodeficiency virus type 1 group M subtype B, UniProt P35961, D363A); experiment: biochemical; assay type: binding
T4 construct: (His)6 (C); made in house; host or cells: 293F cells

[8] = tested on: viruses with HXBc2 or KB9 Env gps
Excerpt: The envelope glycoproteins were derived from CCR5-using (R5) primary HIV isolates (YU2 and ADA), dual-tropic (R5×4) primary isolates (89.6 and KB9) and, as a control, the amphotropic murine leukemia virus (A-MLV).

[9] = tested on: viruses with gp120 Glu 429 replaced with lysine; assay type: cell-based
[10] = biological target: T5, w.t. HIV-1 YU2 gp120 glycoprotein (Human immunodeficiency virus type 1 group M subtype B, UniProt P35961); experiment: biochemical; assay type: binding; conditions: for Kd: w.t. gp120, ITC, 25° C.
T5 construct: (His)6 (C); made in house; host or cells: 293F cells

[11] = tested on: viruses with the S375W envelope glycoproteins; assay type: cell-based; conditions: Cf2Th-CCR5 cells
[12] = NBD-556 compared with NBD-557
[13] = tested on: viruses with the S375A change; assay type: cell-based; conditions: S375A envelope, compared with w.t.
HXBc2 gp120 = biological target: T6, HXBc2 gp120 (Human immunodeficiency virus type 1 group M subtype B, UniProt P04578); experiment: Compound binding assay with [3H]-NBD-556, HXBc2 gp120; set-up: species or system HIV
T6 construct: (His)6 (C); made in house; host or cells: 293F cells

[14] = Human immunodeficiency virus 1, Cf2Th-CD4/CCR5, Cf2Th-CD4/CCR5 cells

Row | Molecule | virus activation (in words) [3] | enhancement of infectivity (in words) (D368A mutant viruses) | inhibition of HIV infection of cells expressing CD4 and CCR5 (in words) [6] | activation of infection (in words) [9] | gp120 binding / affinity (in words) [10] | enhancement of infection (in words) [11] | other results
1 | CC1(C)CC(NC(=O)C(=O)Nc2ccc(Cl)c(F)c2)CC(C)(C)N1 [Compound II, N1-(4-Chloro-3-fluorophenyl)-N2-(2,2,6,6-tetramethylpiperidin-4-yl)oxalamide] | significantly diminished | enhanced | specifically inhibited HIVYU2 infection | eliminated the activation of infection | highest affinity for gp120 | did not activate the entry | Kd [1]: 1000 nM; Kd [2]: 83 nM; Kd [4]: 140 nM; enhancement of HIV infection of CD4-CCR5+ cells (in words) [5]: most potent stimulation of HIV infection; enhancement of HIV infection of CD4-CCR5+ cells (in words) ([5]; listed as compound II): only compound II activated HIV infection; IC50 ([6]; Cf2Th-CD4/CCR5 cells): 54000 nM; IC50 [6, 14]: 90000 nM; Kd [7]: 720 nM; infection of CD4-CXCR4+ cells (in words) [8]: neither of these Env gps supported infection; gp120 binding / affinity (in words) ([10]; listed as compound II): better gp120 binding than NBD-556 or NBD-557; Kd [10]: 800 nM
2 | CN1C(C)(C)CC(NC(=O)C(=O)Nc2ccc(Cl)c(F)c2)CC1(C)C [Compound III] | – | – | lowers the IC50, while maintaining specificity for HIV-1 | – | increases affinity for gp120 | – | IC50 [6, 14]: 75000 nM; Kd [10]: 330 nM
3 | CC1(C)CC(NC(=O)C(=O)Nc2ccc(Br)cc2)CC(C)(C)N1 [NBD-557] | significantly diminished | not enhanced | – | eliminated the activation of infection | comparably to NBD-556 | did not activate the entry | enhancement of HIV infection of CD4-CCR5+ cells (in words) [5]: comparably to NBD-556
4 | CC1(C)CC(NC(=O)C(=O)Nc2ccc(Cl)c(Cl)c2)CC(C)(C)N1 [V] | – | – | – | – | better gp120 binding than NBD-556 or NBD-557 | – | –
5 | COC(=O)CCCn1cc(CN2C(C)(C)CC(NC(=O)C(=O)Nc3ccc(Cl)c(F)c3)CC2(C)C)nn1 [XVIII] | – | – | efficient and specific inhibition of HIV-1 | – | – | – | –
6 | CC1(C)CC(NC(=O)C(=O)Nc2ccc(Cl)c(F)c2)CC(C)(C)N1CCCO [XVII] | – | – | efficient and specific inhibition of HIV-1 | – | – | – | –
7 | CC1(C)CC(NC(=O)C(=O)Nc2ccc(Cl)c(F)c2)CC(C)(C)N1Cc1cn(CCCCCO)nn1 [XVI] | – | – | efficient and specific inhibition of HIV-1 | – | – | – | –
8 | NBD-556 | less disruptive | enhanced | – | eliminated the activation of infection | – | not enhanced | solubility (in words) [12]: better solubility; IC50 ([6]; Cf2Th-CD4/CCR5 cells): > 100000 nM and 100000 nM; enhancement of infection (in words) [13]: greater enhancement; infection of CD4-CXCR4+ cells (in words) [8]: did not enhance the entry; direct binding of 3H-labeled compound (in words) (HXBc2 gp120): only moderately
